Measurements reported in patent publication US10710978B2, “STK4 inhibitors for treatment of hematologic malignancies” (Dana-Farber Cancer Institute, Inc., priority 2015, dated 2020).
Several values for one entry are separate records, joined by “and”; a condition that tells them apart may be missing. Equal values may be shown once. Read-outs that look alike come from different tables or passages of the source.

What was measured:
Experiment in all cases: KiNativ assay
Type in all cases: binding
[1] = test system: CaMK2a, CaMK2b, CaMK2d, CaMK2g; conditions: H929 live cell
Method: (§1) Biochemical IC50s of the compounds of the present disclosure against various kinases were measured in a KiNativ assay. Compounds were screened in duplicate at 10 μM in H929 live cell. IC50 was measured via Mass spectroscopy (MS).

IRAK4 = IRAK4 (Homo sapiens (Human), UniProt Q9NWZ3); conditions: H929 live cell
Method: as §1

PEK = PEK (Homo sapiens (Human), UniProt Q9NZJ5); conditions: H929 live cell
Method: as §1

LYN = LYN (Homo sapiens (Human), UniProt P07948); conditions: H929 live cell
Method: as §1

MSK1 domain1 = MSK1 domain1 (Homo sapiens (Human), UniProt O75582); conditions: H929 live cell
Method: as §1

MAP3K2, MAP3K3 = conditions: H929 live cell
Method: as §1

MAP2K3 = MAP2K3 (Homo sapiens (Human), UniProt P46734); conditions: H929 live cell
Sequence of MAP2K3 (P46734 whole entry): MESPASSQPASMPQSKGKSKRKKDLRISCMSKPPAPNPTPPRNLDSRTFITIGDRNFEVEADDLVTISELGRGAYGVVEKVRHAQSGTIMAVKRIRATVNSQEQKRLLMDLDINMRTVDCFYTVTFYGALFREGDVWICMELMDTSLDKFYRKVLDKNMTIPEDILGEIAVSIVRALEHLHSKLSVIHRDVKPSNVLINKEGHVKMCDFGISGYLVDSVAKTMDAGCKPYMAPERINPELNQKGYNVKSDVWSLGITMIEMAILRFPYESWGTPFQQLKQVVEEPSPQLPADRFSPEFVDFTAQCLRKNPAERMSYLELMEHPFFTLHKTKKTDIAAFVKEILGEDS
Method: as §1

BARK1 = BARK1 (Homo sapiens (Human), UniProt P25098); conditions: H929 live cell
Method: as §1

SGK3 = SGK3 (Homo sapiens (Human), UniProt Q96BR1); conditions: H929 live cell
Method: as §1

p70S6K = p70S6K (Homo sapiens (Human), UniProt P23443); conditions: H929 live cell
Sequence of p70S6K (P23443 whole entry): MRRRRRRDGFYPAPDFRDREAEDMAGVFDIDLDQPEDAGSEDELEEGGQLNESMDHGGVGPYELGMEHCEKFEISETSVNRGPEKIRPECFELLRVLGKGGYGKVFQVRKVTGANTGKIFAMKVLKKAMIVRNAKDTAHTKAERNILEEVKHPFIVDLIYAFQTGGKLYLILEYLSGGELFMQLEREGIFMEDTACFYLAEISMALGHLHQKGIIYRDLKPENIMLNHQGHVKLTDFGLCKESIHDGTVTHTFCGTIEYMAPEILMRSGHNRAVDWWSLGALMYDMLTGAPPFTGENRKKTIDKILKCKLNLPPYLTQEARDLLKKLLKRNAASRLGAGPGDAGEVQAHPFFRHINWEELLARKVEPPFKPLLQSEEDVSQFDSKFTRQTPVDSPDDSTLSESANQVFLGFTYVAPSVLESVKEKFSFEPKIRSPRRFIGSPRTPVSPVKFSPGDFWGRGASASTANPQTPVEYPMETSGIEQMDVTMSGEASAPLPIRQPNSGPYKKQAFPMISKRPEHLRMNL
Method: as §1

STLK5 = STLK5 (Homo sapiens (Human), UniProt Q7RTN6); conditions: H929 live cell
Method: as §1

PKCi = PKCi (Homo sapiens (Human), UniProt P41743); conditions: H929 live cell
Sequence of PKCi (P41743 whole entry): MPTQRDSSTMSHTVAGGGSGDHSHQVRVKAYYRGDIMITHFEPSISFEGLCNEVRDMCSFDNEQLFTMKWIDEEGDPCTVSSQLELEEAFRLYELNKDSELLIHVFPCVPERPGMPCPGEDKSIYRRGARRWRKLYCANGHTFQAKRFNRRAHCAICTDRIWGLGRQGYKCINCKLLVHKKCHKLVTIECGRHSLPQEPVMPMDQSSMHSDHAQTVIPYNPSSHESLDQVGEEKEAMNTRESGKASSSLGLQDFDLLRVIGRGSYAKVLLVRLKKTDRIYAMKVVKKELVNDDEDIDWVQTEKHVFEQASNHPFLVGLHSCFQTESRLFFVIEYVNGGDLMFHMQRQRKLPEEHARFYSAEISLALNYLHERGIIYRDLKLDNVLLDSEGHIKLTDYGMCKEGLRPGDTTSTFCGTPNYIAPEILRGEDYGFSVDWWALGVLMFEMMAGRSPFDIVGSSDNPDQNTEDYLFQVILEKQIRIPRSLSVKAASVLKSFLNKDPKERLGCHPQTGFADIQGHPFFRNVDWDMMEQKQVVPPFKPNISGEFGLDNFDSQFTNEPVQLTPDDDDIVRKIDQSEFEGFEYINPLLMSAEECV
Method: as §1

MAP2K1, MAP2K2 = conditions: 10 μM, H929 live cell
Method: as §1

RSK1 domain2 = RSK1 domain2 (Homo sapiens (Human), UniProt Q15418); conditions: H929 live cell
Sequence of RSK1 domain2 (Q15418 whole entry, the tested form may be a part): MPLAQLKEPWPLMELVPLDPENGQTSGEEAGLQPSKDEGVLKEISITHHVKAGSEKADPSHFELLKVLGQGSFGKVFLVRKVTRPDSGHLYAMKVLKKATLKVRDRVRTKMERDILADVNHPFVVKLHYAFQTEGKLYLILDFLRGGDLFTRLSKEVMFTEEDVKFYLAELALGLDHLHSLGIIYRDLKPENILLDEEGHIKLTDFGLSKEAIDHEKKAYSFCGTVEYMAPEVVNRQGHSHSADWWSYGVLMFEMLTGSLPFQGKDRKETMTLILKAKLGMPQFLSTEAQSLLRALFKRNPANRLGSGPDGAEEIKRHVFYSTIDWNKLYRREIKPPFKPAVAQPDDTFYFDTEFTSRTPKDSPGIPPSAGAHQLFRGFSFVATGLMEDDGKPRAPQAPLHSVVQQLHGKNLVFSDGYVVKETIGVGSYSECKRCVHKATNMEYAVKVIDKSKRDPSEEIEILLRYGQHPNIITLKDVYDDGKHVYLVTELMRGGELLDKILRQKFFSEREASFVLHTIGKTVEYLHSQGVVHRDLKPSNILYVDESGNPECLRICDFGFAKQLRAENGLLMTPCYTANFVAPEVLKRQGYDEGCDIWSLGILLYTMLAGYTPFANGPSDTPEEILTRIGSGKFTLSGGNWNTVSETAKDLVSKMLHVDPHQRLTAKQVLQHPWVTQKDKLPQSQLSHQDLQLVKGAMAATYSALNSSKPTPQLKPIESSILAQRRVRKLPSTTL
Method: as §1

LKB1 = LKB1 (Homo sapiens (Human), UniProt Q15831); conditions: H929 live cell
Sequence of LKB1 (Q15831 whole entry): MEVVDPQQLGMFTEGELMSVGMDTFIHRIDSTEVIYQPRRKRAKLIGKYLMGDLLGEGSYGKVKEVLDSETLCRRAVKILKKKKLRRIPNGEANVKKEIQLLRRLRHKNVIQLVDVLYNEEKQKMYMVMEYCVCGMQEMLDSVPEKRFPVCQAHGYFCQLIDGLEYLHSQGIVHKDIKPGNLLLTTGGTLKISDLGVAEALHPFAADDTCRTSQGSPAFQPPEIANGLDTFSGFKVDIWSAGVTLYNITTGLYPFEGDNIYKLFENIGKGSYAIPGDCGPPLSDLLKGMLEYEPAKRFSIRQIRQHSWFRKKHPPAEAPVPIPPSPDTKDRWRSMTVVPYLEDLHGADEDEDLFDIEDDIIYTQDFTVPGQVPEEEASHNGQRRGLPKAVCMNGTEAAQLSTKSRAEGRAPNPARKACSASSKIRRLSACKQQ
Method: as §1

MSK2 domain1 = MSK2 domain1 (Homo sapiens (Human), UniProt O75676); conditions: H929 live cell
Method: as §1

CDK5 = CDK5 (Homo sapiens (Human), UniProt Q00535); conditions: H929 live cell
Sequence of CDK5 (Q00535 whole entry): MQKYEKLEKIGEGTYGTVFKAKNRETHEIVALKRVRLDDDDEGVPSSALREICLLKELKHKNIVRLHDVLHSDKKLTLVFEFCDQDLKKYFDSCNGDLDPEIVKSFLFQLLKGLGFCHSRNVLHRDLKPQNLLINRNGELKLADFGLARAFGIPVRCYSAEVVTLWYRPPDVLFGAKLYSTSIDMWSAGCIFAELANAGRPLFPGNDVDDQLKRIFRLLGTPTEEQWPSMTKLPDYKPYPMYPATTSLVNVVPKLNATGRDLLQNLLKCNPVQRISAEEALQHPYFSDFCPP
Method: as §1

MLK3 = MLK3 (Homo sapiens (Human), UniProt Q16584); conditions: H929 live cell
Method: as §1

NEK3 = NEK3 (Homo sapiens (Human), UniProt P51956); conditions: H929 live cell
Method: as §1

MAP2K6 = MAP2K6 (Homo sapiens (Human), UniProt P52564); conditions: H929 live cell
Sequence of MAP2K6 (P52564 whole entry): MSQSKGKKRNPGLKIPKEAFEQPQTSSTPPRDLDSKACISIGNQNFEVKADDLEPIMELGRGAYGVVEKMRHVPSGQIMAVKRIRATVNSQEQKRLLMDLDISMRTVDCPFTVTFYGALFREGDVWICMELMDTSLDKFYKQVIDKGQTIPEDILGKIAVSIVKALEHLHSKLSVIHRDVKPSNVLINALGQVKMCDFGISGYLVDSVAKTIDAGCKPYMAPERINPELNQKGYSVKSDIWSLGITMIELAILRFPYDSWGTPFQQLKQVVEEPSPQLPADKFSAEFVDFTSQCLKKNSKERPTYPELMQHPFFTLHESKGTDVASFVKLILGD
Method: as §1

MARK2, MARK3 = conditions: H929 live cell
Method: as §1

p38d, p38g = conditions: H929 live cell
Method: as §1

GCN2 domain2 = GCN2 domain2 (Homo sapiens (Human), UniProt Q9P2K8); conditions: H929 live cell
Method: as §1

AurA = AurA (Homo sapiens (Human), UniProt O14965); conditions: H929 live cell
Sequence of AurA (O14965 whole entry): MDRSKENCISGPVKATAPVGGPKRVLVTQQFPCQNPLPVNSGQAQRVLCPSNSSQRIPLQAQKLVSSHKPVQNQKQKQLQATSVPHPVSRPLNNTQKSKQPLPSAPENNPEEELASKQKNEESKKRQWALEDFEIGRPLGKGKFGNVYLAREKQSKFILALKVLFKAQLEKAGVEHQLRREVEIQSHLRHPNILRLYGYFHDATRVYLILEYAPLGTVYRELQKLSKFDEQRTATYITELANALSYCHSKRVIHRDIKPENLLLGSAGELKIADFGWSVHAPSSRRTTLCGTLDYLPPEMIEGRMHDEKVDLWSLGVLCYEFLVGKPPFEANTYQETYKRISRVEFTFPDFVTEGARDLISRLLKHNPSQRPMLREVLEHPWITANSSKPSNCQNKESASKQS
Method: as §1

CaMK1d = CaMK1d (Homo sapiens (Human), UniProt Q8IU85); conditions: H929 live cell
Method: as §1

NuaK2 = NuaK2 (Homo sapiens (Human), UniProt Q9H093); conditions: H929 live cell
Method: as §1

PRPK = PRPK (Homo sapiens (Human), UniProt Q96S44); conditions: H929 live cell
Method: as §1

TLK1 = TLK1 (Homo sapiens (Human), UniProt Q9UKI8); conditions: H929 live cell
Method: as §1

MAST3 = MAST3 (Homo sapiens (Human), UniProt O60307); conditions: H929 live cell
Sequence of MAST3 (O60307 whole entry): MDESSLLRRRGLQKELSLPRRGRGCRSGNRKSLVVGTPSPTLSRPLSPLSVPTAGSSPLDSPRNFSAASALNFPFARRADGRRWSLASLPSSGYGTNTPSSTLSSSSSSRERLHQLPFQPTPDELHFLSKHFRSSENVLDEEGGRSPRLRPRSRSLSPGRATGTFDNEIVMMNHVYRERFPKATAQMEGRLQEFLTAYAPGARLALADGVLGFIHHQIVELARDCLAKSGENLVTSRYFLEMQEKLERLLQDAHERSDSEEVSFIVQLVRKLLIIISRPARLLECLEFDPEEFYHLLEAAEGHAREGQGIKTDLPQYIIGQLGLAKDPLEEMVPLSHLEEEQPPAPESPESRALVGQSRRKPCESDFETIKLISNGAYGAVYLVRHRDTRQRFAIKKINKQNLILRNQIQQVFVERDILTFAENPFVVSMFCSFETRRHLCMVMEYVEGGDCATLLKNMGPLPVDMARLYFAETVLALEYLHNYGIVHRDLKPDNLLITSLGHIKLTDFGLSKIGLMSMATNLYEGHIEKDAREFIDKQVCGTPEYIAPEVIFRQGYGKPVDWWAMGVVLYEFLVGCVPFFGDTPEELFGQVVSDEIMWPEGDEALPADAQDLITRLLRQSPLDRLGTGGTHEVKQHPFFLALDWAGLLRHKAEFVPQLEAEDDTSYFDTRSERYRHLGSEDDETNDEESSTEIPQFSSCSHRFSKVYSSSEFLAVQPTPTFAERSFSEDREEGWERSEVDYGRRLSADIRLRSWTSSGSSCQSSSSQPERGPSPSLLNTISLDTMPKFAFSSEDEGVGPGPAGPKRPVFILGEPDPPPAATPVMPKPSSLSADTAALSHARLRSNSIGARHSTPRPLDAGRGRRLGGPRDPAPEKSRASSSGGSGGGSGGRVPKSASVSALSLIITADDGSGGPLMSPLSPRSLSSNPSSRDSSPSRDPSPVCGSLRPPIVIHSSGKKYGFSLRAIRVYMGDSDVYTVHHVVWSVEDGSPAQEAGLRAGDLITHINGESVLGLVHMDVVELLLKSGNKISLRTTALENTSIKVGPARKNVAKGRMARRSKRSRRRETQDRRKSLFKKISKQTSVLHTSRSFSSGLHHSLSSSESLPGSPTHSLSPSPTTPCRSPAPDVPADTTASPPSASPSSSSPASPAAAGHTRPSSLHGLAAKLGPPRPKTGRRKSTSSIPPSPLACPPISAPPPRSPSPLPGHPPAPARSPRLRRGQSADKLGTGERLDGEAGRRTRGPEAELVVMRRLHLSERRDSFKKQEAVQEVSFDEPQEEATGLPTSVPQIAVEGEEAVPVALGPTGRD
Method: as §1

FRAP = FRAP (Homo sapiens (Human), UniProt P42345); conditions: H929 live cell
Method: as §1

NEK6, NEK7 = conditions: H929 live cell
Method: as §1

[2] = test system: ZC1/HGK, ZC2/TNIK, ZC3/MINK; conditions: H929 live cell
Method: as §1

PKR = PKR (Homo sapiens (Human), UniProt P19525); conditions: H929 live cell
Method: as §1

JAK1 domain1 = JAK1 domain1 (Homo sapiens (Human), UniProt P23458); conditions: H929 live cell
Method: as §1

SMILES: Nc1ncc(-c2cccc([N+](=O)[O-])c2F)cc1-c1ccc2c(c1)CCNC2=O [Compound I-9, 6-(2-amino-5-(2-fluoro-3-nitrophenyl)pyridin-3-yl)-3,4-dihydroisoquinolin-1(2H)-one]
- % inhibition (range) ([1]; 10 μM): 0.0%
- inhibition (10 μM) [1]: 3.3%
- inhibition at 10 µM (IRAK4; read-out: % inhibition (range)): 0%
- inhibition at 10 µM (IRAK4; read-out: inhibition (10 μM)): -14.1%
- inhibition at 10 µM (PEK; read-out: % inhibition (range)): > 100%
- inhibition at 10 µM (PEK; read-out: inhibition (10 μM)): -100%
- inhibition at 10 µM (LYN; read-out: % inhibition (range)): 0%
- inhibition at 10 µM (LYN; read-out: inhibition (10 μM)): -12.4%
- inhibition at 10 µM (MSK1 domain1; read-out: % inhibition (range)): 0%
- inhibition at 10 µM (MSK1 domain1; read-out: inhibition (10 μM)): 2%
- % inhibition (range) (MAP3K2, MAP3K3; 10 μM): 35-50%
- inhibition (10 μM) (MAP3K2, MAP3K3): 43.2%
- inhibition at 10 µM (MAP2K3; read-out: % inhibition (range)): 0%
- inhibition at 10 µM (MAP2K3; read-out: inhibition (10 μM)): -34.2%
- inhibition at 10 µM (BARK1; read-out: % inhibition (range)): 0%
- inhibition at 10 µM (BARK1; read-out: inhibition (10 μM)): 2.8%
- inhibition at 10 µM (SGK3; read-out: % inhibition (range)): 50 to 75%
- inhibition at 10 µM (SGK3; read-out: inhibition (10 μM)): 51.6%
- inhibition at 10 µM (p70S6K; read-out: % inhibition (range)): 0%
- inhibition at 10 µM (p70S6K; read-out: inhibition (10 μM)): -71.5%
- inhibition at 10 µM (STLK5; read-out: % inhibition (range)): 0%
- inhibition at 10 µM (STLK5; read-out: inhibition (10 μM)): -14.9%
- inhibition at 10 µM (PKCi; read-out: % inhibition (range)): 0%
- inhibition at 10 µM (PKCi; read-out: inhibition (10 μM)): 18.5%
- % inhibition (range) (MAP2K1, MAP2K2): 0.0%
- inhibition at 10 µM (RSK1 domain2; read-out: % inhibition (range)): 0%
- inhibition at 10 µM (RSK1 domain2; read-out: inhibition (10 μM)): 1%
- inhibition at 10 µM (LKB1; read-out: % inhibition (range)): 0%
- inhibition at 10 µM (LKB1; read-out: inhibition (10 μM)): 4.5%
- inhibition at 10 µM (MSK2 domain1; read-out: % inhibition (range)): 0%
- inhibition at 10 µM (MSK2 domain1; read-out: inhibition (10 μM)): -36.5%
- inhibition at 10 µM (CDK5; read-out: % inhibition (range)): 75 to 90%
- inhibition at 10 µM (CDK5; read-out: inhibition (10 μM)): 78.7%
- inhibition at 10 µM (MLK3; read-out: % inhibition (range)): 50 to 75%
- inhibition at 10 µM (MLK3; read-out: inhibition (10 μM)): 62.9%
- inhibition at 10 µM (NEK3; read-out: % inhibition (range)): 0%
- inhibition at 10 µM (NEK3; read-out: inhibition (10 μM)): -42.8%
- inhibition at 10 µM (MAP2K6; read-out: % inhibition (range)): 0%
- inhibition at 10 µM (MAP2K6; read-out: inhibition (10 μM)): 6.8%
- % inhibition (range) (MARK2, MARK3; 10 μM): 50-75%
- inhibition (10 μM) (MARK2, MARK3): 70.2%
- % inhibition (range) (p38d, p38g; 10 μM): 0.0%
- inhibition (10 μM) (p38d, p38g): −11.0%
- inhibition at 10 µM (GCN2 domain2; read-out: % inhibition (range)): 0%
- inhibition at 10 µM (GCN2 domain2; read-out: inhibition (10 μM)): 15.5%
- % inhibition (range) (AurA; 10 μM): 50-75% and 75-90%
- inhibition (10 μM) (AurA): 75.7%
- inhibition at 10 µM (AurA; read-out: inhibition (10 μM)): 68.5%
- inhibition at 10 µM (CaMK1d; read-out: % inhibition (range)): 0%
- inhibition at 10 µM (CaMK1d; read-out: inhibition (10 μM)): -2.8%
- inhibition at 10 µM (NuaK2; read-out: % inhibition (range)): 50 to 75%
- inhibition at 10 µM (NuaK2; read-out: inhibition (10 μM)): 58.7%
- inhibition at 10 µM (PRPK; read-out: % inhibition (range)): 0%
- inhibition at 10 µM (PRPK; read-out: inhibition (10 μM)): -5%
- inhibition at 10 µM (TLK1; read-out: % inhibition (range)): 0%
- inhibition at 10 µM (TLK1; read-out: inhibition (10 μM)): 28.8%
- inhibition at 10 µM (MAST3; read-out: % inhibition (range)): 0%
- inhibition at 10 µM (MAST3; read-out: inhibition (10 μM)): 31.2%
- inhibition at 10 µM (FRAP; read-out: % inhibition (range)): 50 to 75%
- inhibition at 10 µM (FRAP; read-out: inhibition (10 μM)): 72.7%
- % inhibition (range) (NEK6, NEK7; 10 μM): 0.0%
- inhibition (10 μM) (NEK6, NEK7): −35.7%
- % inhibition (range) ([2]; 10 μM): >90%
- inhibition (10 μM) [2]: 96.7%
- inhibition at 10 µM (PKR; read-out: % inhibition (range)): 0%
- inhibition at 10 µM (PKR; read-out: inhibition (10 μM)): -36.7%
- inhibition at 10 µM (JAK1 domain1; read-out: % inhibition (range)): 0%
- inhibition at 10 µM (JAK1 domain1; read-out: inhibition (10 μM)): -44.3%
